# From PMC7549094 (Journal of Medicinal Chemistry, 2020)
# Columns and labels:
# [1] = target: hr 5-HT2A antag (Homo sapiens, UniProt P28223); test: receptor profile (Table S4); type: biochemical
# [2] = target: T1, hr PPARg antag (Homo sapiens, UniProt P37231); test: receptor profile (Table S4); type: biochemical
# T1 sequence (P37231 1-505): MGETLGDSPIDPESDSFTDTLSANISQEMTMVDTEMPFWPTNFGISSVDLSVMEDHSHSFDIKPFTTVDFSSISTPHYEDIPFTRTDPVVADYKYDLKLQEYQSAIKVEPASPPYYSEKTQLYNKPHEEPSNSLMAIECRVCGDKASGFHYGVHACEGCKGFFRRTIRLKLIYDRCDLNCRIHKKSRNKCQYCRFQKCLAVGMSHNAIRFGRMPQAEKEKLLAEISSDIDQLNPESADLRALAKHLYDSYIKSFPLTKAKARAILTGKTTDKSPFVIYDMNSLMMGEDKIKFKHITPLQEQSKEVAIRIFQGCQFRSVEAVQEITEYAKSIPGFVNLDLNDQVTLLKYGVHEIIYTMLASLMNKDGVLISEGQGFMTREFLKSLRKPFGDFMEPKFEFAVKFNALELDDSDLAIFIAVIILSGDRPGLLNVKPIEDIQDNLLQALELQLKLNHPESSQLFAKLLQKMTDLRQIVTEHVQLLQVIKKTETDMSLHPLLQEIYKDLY
# [3] = target: T2, hr MAOA (Homo sapiens, UniProt P21397); test: receptor profile (Table S4); type: biochemical
# T2 sequence (P21397 1-527): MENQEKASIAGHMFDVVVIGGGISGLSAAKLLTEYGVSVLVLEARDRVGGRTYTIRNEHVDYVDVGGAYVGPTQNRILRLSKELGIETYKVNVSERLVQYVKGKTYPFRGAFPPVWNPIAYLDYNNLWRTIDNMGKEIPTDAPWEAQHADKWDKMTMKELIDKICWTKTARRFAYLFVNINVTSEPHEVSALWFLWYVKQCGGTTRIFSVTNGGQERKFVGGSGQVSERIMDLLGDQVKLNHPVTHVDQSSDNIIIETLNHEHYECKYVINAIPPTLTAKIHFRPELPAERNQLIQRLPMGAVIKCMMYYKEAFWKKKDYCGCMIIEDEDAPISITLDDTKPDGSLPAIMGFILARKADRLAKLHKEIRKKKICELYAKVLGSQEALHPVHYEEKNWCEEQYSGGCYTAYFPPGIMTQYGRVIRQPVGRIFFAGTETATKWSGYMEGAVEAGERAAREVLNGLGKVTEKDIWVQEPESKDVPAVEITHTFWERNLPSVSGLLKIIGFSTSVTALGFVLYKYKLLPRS
# [4] = target: Cav1.2 (Homo sapiens, UniProt Q13936); test: receptor profile (Table S4); conditions: human
# [5] = target: hr Cav1.2 (Homo sapiens, UniProt Q13936); test: receptor profile (Table S4); conditions: hr Cav1.2
# [6] = test system: L. donovani; test: murine model of visceral leishmaniasis, liver parasite burden by qPCR; type: in vivo; conditions: mice infected with L. donovani; 1 mg/kg b.i.d. PO, 8 days
# Text: Formulation of study drugs for in vivo efficacy experiments. LXE408 administered to mice during efficacy experiments was formulated as a suspension in distilled water containing 0.5% methylcellulose and 0.5% Tween-80 (mouse model of visceral leishmaniasis) or hydroxypropylcellulose and Tween-80 (mouse models of cutaneous leishmaniasis). Miltefosine was formulated as a solution in distilled water containing 0.5% methylcellulose and 0.5% Tween-80.
# Mouse model of visceral leishmaniasis. Female BALB/c mice (6-8 weeks old) were infected by tail vein injection with 4x 107 L. donovani MHOM/ET/67/HU3 splenic amastigotes. Seven days after infection, animals were orally dosed for 8 days with vehicle (0.5% MC/0.5% Tween-80 in distilled water), miltefosine (12 mg/kg once-daily), or LXE408 (twice-daily). At the end of treatment, liver samples were collected and L. donovani parasite burdens were quantified by qPCR as follows. L. donovani genomic DNA was extracted from drug-treated mice livers using the DNeasy Blood and Tissue Kit (Qiagen). Two types of DNA were quantified in parallel using the TaqMan assays for L. donovani major surface
# [7] = target: hr ERa ag (Homo sapiens, UniProt P03372); test: receptor profile (Table S4); type: biochemical
# [8] = target: T3, rr AR ag (Rattus norvegicus, UniProt P15207); test: receptor profile (Table S4); type: biochemical
# T3 sequence (P15207 1-902): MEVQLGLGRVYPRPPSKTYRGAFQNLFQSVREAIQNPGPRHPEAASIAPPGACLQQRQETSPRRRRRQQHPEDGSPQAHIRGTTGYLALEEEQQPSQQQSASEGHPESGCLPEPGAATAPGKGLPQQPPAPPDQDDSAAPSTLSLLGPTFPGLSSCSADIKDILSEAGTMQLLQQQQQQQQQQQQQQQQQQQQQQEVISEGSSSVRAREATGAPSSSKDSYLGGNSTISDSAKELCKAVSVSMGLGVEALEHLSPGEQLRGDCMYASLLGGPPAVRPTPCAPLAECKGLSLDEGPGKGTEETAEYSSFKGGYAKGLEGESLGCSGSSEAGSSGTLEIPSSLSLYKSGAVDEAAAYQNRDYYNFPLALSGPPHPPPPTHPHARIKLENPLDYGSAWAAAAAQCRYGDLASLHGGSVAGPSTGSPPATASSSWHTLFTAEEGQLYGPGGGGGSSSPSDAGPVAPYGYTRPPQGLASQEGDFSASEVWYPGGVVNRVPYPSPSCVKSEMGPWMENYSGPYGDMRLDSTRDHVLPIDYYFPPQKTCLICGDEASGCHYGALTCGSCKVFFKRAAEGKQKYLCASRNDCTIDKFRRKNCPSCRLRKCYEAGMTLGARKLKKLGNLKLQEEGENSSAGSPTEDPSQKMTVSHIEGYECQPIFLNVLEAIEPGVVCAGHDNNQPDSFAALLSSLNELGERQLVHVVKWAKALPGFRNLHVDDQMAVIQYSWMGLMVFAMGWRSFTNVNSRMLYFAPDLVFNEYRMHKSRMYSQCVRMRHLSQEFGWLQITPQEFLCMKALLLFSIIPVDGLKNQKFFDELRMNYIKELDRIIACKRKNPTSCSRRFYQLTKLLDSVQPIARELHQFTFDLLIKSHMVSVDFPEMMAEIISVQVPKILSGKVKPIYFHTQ
# [9] = target: hr CB1 antag (Homo sapiens, UniProt P21554); test: receptor profile (Table S4); type: biochemical
# [10] = target: CYP2D15 (Canis lupus familiaris, UniProt Q29473); conditions: panel of dog recombinant CYP enzymes; 1 µM, 30 min
# Chain of hr ERa ag (P03372 whole entry): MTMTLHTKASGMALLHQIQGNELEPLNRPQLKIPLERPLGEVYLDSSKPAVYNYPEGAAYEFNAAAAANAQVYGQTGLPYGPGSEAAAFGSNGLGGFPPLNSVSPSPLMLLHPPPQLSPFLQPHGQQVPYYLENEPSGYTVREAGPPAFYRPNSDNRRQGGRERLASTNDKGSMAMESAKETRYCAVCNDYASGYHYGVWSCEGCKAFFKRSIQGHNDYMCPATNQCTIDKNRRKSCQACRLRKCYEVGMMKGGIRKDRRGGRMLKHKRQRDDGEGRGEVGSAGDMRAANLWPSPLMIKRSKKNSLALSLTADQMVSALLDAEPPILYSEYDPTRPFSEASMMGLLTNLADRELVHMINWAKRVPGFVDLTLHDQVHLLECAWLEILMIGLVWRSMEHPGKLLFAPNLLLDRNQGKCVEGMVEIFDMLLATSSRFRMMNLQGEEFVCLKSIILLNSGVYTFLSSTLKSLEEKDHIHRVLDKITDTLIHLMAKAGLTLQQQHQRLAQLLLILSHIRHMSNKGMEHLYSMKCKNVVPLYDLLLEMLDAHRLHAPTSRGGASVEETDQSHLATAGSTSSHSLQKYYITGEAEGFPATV
# Chain of hr CB1 antag (P21554 whole entry): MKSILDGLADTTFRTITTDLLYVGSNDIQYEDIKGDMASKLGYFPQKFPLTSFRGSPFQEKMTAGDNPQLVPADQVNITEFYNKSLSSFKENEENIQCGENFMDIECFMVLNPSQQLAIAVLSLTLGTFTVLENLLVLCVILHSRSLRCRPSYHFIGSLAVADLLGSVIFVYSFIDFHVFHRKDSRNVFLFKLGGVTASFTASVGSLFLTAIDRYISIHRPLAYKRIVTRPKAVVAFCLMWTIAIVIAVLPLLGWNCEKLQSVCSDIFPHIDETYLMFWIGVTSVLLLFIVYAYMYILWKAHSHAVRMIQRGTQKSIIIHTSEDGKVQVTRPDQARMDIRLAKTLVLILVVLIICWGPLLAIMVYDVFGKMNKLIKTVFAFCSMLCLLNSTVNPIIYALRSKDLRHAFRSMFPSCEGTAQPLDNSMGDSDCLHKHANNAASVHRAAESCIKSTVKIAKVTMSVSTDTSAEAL
# Chain of Cav1.2 (Q13936 whole entry): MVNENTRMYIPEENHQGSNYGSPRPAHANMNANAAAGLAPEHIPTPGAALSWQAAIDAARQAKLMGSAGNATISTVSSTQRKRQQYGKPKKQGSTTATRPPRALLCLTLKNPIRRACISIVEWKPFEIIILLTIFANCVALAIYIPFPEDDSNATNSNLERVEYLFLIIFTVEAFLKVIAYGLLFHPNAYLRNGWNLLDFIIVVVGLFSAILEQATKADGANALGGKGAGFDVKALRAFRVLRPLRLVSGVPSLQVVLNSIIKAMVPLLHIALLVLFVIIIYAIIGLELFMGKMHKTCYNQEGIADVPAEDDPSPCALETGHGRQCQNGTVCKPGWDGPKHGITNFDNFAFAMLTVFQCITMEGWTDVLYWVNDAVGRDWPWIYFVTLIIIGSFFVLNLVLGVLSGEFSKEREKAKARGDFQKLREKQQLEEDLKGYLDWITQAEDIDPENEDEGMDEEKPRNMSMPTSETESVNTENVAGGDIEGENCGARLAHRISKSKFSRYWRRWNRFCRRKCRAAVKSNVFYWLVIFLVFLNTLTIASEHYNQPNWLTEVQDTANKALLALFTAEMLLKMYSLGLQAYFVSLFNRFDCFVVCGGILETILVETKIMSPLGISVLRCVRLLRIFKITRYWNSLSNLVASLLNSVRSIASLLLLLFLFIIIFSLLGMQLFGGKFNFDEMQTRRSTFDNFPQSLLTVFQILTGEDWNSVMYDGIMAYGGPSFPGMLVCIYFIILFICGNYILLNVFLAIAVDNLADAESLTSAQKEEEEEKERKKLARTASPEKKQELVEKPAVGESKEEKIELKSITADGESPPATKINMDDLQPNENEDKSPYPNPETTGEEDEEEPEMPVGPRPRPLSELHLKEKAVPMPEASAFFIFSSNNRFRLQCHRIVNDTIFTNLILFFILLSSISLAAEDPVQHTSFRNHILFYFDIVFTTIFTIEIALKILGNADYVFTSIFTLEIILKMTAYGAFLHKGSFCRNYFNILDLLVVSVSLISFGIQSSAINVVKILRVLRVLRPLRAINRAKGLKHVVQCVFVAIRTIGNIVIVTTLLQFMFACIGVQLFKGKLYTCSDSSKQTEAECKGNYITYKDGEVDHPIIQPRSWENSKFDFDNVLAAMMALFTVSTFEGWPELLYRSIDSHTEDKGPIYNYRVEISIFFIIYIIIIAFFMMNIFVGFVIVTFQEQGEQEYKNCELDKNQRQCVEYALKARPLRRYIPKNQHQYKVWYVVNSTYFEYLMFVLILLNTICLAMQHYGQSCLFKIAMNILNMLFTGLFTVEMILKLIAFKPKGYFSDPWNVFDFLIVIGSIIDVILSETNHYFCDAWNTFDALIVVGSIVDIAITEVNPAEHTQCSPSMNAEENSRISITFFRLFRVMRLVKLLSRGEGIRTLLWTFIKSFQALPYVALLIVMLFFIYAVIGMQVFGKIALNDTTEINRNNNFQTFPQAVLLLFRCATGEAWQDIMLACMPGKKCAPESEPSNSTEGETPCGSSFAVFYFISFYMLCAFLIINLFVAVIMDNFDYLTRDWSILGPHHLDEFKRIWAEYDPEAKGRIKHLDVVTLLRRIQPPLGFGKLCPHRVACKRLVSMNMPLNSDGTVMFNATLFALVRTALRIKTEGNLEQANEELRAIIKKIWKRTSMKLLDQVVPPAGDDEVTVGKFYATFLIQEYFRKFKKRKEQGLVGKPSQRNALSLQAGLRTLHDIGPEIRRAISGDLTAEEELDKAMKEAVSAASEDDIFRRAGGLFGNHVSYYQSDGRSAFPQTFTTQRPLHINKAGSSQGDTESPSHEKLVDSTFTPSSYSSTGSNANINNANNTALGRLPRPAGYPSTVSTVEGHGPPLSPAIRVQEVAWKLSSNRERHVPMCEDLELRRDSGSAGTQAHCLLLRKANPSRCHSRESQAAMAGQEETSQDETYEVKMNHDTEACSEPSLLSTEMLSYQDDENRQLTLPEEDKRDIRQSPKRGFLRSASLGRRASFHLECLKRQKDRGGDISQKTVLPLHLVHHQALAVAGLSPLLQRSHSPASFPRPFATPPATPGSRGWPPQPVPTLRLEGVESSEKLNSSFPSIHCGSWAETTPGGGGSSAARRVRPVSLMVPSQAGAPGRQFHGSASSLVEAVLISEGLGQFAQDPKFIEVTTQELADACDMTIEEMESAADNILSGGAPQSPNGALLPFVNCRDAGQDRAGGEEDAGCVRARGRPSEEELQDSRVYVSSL
# Chain of Cav1.2 (Q08289 whole entry partner): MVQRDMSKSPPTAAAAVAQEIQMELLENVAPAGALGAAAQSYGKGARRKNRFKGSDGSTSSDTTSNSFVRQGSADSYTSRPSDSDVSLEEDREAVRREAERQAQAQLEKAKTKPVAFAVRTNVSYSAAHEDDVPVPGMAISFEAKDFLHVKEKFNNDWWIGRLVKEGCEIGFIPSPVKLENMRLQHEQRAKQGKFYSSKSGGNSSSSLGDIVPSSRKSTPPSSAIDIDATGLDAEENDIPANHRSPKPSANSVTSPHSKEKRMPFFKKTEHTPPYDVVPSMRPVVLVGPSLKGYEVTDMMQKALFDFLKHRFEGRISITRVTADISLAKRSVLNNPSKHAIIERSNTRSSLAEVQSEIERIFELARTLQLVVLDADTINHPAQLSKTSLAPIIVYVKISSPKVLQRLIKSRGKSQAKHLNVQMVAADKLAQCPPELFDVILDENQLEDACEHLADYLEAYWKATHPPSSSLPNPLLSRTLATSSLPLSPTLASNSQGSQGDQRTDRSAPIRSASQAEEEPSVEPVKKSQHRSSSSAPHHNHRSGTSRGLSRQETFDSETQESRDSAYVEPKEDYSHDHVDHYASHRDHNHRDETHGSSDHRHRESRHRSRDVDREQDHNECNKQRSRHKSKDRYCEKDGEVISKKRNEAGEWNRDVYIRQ
# Chain of Cav1.2 (P54289 25-946 partner limits assumed): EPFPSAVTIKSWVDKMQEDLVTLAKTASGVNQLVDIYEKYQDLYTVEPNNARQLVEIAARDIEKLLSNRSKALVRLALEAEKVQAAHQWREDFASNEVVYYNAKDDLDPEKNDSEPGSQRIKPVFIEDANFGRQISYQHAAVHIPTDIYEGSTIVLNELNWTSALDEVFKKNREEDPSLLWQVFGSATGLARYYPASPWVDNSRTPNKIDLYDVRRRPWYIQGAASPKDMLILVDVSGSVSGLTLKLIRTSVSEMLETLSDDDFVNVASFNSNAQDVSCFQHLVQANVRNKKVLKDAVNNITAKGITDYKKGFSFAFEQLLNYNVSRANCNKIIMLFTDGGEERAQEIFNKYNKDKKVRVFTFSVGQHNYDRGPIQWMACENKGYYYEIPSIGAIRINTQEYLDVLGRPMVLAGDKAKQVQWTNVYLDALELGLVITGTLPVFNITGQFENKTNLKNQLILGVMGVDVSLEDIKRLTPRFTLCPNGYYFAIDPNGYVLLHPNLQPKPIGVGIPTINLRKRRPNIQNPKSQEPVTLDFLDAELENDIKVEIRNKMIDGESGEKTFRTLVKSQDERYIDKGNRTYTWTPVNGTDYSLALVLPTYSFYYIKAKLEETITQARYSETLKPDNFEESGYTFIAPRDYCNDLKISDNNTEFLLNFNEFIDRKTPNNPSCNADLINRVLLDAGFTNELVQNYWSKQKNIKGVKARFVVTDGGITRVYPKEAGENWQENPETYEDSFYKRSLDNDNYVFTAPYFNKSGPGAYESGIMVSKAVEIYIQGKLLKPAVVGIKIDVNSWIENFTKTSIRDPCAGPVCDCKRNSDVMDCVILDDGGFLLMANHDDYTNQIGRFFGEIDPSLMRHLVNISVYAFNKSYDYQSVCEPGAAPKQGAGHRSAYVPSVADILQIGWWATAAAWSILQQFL
# Chain of Cav1.2 (P54289 947-1103 partner limits assumed): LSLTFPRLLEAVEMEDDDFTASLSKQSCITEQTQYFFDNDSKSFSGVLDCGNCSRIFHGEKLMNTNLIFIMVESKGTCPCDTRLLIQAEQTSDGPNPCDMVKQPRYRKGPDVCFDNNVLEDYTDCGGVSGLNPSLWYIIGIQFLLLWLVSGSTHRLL
smiles,measurement,setting,value
"Cc1nc(C)c(C(=O)Nc2ccc(F)c(-c3nc4ncc(-c5ncccc5C)cn4n3)c2)o1 [compound 1, N-(4-Fluoro-3-(6-(3-methylpyridin-2-yl)-[1,2,4]triazolo[1,5-a]pyrimidin-2-yl)phenyl)-2,4-dimethyloxazole-5-carboxamide]",EC50/IC50,[1]; hr 5-HT2A antag,> 10 µM
same,inhibition at 10 µM,[1]; read-out: % inh/act @ 10 µM,34%
same,EC50/IC50,[2]; hr PPARg antag,> 30 µM
same,inhibition at 10 µM,[2]; read-out: % inh/act @ 10 µM,-5%
same,inhibition at 30 µM,[2]; read-out: % inh/act @ 30 µM,16%
same,EC50/IC50,[3]; hr MAOA,> 30 µM
same,inhibition at 10 µM,[3]; read-out: % inh/act @ 10 µM,4%
same,inhibition at 30 µM,[3]; read-out: % inh/act @ 30 µM,12%
same,inhibition at 10 µM,[4],-3%
same,inhibition at 30 µM,[4],-7%
same,EC50/IC50,[5],> 50 µM
same,reduction of parasite burden in the liver,[6],95%
same,EC50/IC50,[7]; hr ERa ag,> 30 µM
same,inhibition at 10 µM,[7]; read-out: % inh/act @ 10 µM,7%
same,inhibition at 30 µM,[7]; read-out: % inh/act @ 30 µM,15%
same,inhibition at 10 µM,[8]; read-out: % inh/act @ 10 µM,1%
same,inhibition at 30 µM,[8]; read-out: % inh/act @ 30 µM,0%
same,EC50/IC50,[8]; rr AR ag,> 30 µM
same,EC50/IC50,[9]; hr CB1 antag,> 30 µM
same,inhibition at 10 µM,[9]; read-out: % inh/act @ 10 µM,-47%
same,inhibition at 30 µM,[9]; read-out: % inh/act @ 30 µM,-57%
same,metabolism by dog recombinant CYP enzymes,[10],metabolized to 8 predominantly by CYP2D15
